Experimental data taken from publication PMC6271395, “Synthesis and Biological Activities of Some New (N^α-Dinicotinoyl)-bis-L-Leucyl Linear and Macrocyclic Peptides” (Molecules, 2014).

Key:
Bacillus subtilis = experiment: Agar diffusion antimicrobial test, Bacillus subtilis; assay type: cell-based; conditions: Gram+ve, modified Kirby–Bauer disk diffusion, 10 µg/mL
Procedure: (§1) The newly synthesized compounds 3–12 were tested for their preliminary antimicrobial activity against different microorganisms representing Gram-positive (Bacillus subtilis, Bacillus aureus and Staphylococcus aureus), Gram-negative bacteria (Escherichia coli), yeast (Candida albican) and fungi (Aspergillus niger).
(§2) The antimicrobial activities of the synthesized compounds were determined by the agar diffusion method as recommended by the national committee for clinical laboratory standards (NCCLS). The concentrations of the tested compounds (10 µg/mL) were used according to modified Kirby–Bauer’s disk diffusion method. The degree of inhibition is measured in comparison with that of chloramphinicol and fusidic acid taken as standards.

Bacillus aureus = experiment: Agar diffusion antimicrobial test, Bacillus aureus; assay type: cell-based; conditions: Gram+ve, modified Kirby–Bauer disk diffusion, 10 µg/mL
Procedure: as §1, §2

Staphylococcus aureus = experiment: Agar diffusion antimicrobial test, Staphylococcus aureus; assay type: cell-based; conditions: Gram+ve, modified Kirby–Bauer disk diffusion, 10 µg/mL
Procedure: as §1, §2

Escherichia coli = experiment: Agar diffusion antimicrobial test, Escherichia coli; assay type: cell-based; conditions: Gram−ve, modified Kirby–Bauer disk diffusion, 10 µg/mL
Procedure: as §1, §2

Candida albicans = experiment: Agar diffusion antimicrobial test, Candida albicans; assay type: cell-based; conditions: Yeast, modified Kirby–Bauer disk diffusion, 10 µg/mL
Procedure: as §1, §2

Aspergillus niger = experiment: Agar diffusion antimicrobial test, Aspergillus niger; assay type: cell-based; conditions: Fungi, modified Kirby–Bauer disk diffusion, 10 µg/mL
Procedure: as §1, §2

[1] = system: carrageenan-induced edema; experiment: Carrageenan-induced edema (rat paw test); assay type: in vivo; conditions: one hour before carrageenan, male albino rats, eight animals per group, paws excised four hours after drug administration
Procedure: (§3) For the determination of the antiphlogistic potency of the synthesized compounds, two standard tests were realized at a dose level 2.5 and 5 mg/kg body weight of the rats, namely the protection against carrageenan-induced edema according to Winter et al. and the inhibition of plasma PGE2. The latter is known as a good confirming indicator for carrageenan-induced rat paw edema. […] For these compounds, a similar activity profile was realized for the inhibition of plasma PGE2.
(§4) Groups of adult male albino rats (150–180 g), each of eight animals were orally dosed with tested compounds at a dose level of 2.5–5 mg/kg one hour before carrageenan challenge. Foot paw edema was induced by subplantar injection of 0.05 cm^3 of a 1% suspension of carrageenan in saline into the plantar tissue of one hind paw. An equal volume of saline was injected to the other hand paw and served as control. Four hours after drug administration the animals were decapitated, blood was collected, and the paws were rapidly excised. The average weight of edema was examined for the treated as well as the control group and the percentage inhibition of weight of edema was also evaluated. Diclofenac potassium (5 mg/kg) was employed as standard reference against which the tested compounds were compared (Table 2).

plasma PGE2 = experiment: Inhibition of plasma PGE2 (EIA) in carrageenan-challenged rats; assay type: in vivo, rat; conditions: rats n = 8, blood four hours after drug administration, PGE2 EIA kit
Procedure: as §3, §4
Heparinized blood samples were collected from rats (n = 8), plasma was separated by centrifugation at 12,000 g for 2 min at […], immediately frozen, and stored at […] until use. The design correlate EIA prostaglandin E2 (PGE2) kit (Aldrich, Steinheim, Germany) is a competitive immuno assay for the quantitative determination of PGE2 in biological fluids. The kit uses a monoclonal antibody to PGE2 to bind, in a competitive manner, the PGE2 in the sample after a simultaneous incubation at room temperature. The excess reagents were washed away and the substrate was added, after a short incubation time the enzyme reaction was stopped, and the yellow color generated was read on a microplate reader DYNATech, MR 5000 at 405 nm (Dynatech Industries Inc., McLean, VA, USA). The intensity of the bound yellow color is inversely proportional to the concentration of PGE2 in either standard or samples.

MCF7 = assay type: cell-based, human; conditions: MTT, 3 days, 37 °C; at least three experiments; read-out: IC50 against breast cell line MCF7
Procedure: (§5) The cytotoxicity of the newly synthesized compounds against cancer cell lines in vitro was performed with the MTT assay according to the Mosmann’s method. The MTT assay is based on the reduction of the soluble 3-(4,5-[…]-2-thiazolyl)-2,5-diphenyl-2H-tetrazolium bromide (MTT) into a blue-purple formazan product, mainly by mitochondrial reductase activity inside living cells. The cells used in cytotoxicity assay were cultured in RPMI 1640 medium supplemented with 10% fetal calf serum. Cells suspended in the medium (2 × 10^4 mL^−^1) were plated in 96-well culture plates and incubated at 37 °C in a 5% CO2 incubator. […] The cultured cells were mixed with 20 μL of MTT solution and incubated for 4 h at 37 °C. The supernatant was carefully removed from each well and 100 μL of DMSO were added to each well to dissolve the formazan crystals which were formed by the cellular reduction of MTT. After mixing with a mechanical plate mixer, the absorbance of each well was measured by a microplate reader using a test wavelength of 570 nm. The results were expressed as the IC50, which inducing a 50% inhibition of cell growth of treated cells when compared to the growth of control cells. Each experiment was performed at least three times. There was a good reproducibility between replicate wells with standard errors below 10%.

HS578T = assay type: cell-based; conditions: MTT, 3 days, 37 °C; at least three experiments; read-out: IC50 against breast cell line HS578T
Procedure: as §5

MDAMB231 = assay type: cell-based; conditions: MTT, 3 days, 37 °C; at least three experiments; read-out: IC50 against breast cell line MDAMB231
Procedure: as §5

MDAMB435 = assay type: cell-based; conditions: MTT, 3 days, 37 °C; at least three experiments; read-out: IC50 against breast cell line MDAMB435
Procedure: as §5

CC(C)C[C@H](NC(=O)c1cncc(C(=O)N[C@@H](CC(C)C)C(=O)N/N=C/c2ccc([N+](=O)[O-])cc2)c1)C(=O)N/N=C/c1ccc([N+](=O)[O-])cc1 [Compound 10d]
Inhibition Zome, Bacillus subtilis (Bacillus subtilis): 1.85 cm
Inhibition Zome, Bacillus aureus (Bacillus aureus): 2.00 cm
Inhibition Zome, Staphylococcus aureus (Staphylococcus aureus): 1.92 cm
Inhibition Zome, Escherichia coli (Escherichia coli): 0.90 cm
Inhibition Zome, Candida albicans (Candida albicans): 0.96 cm
Inhibition Zome, Aspergillus niger (Aspergillus niger): 2.00 cm
% Protection against Edema ([1]; dose 2.5 mg/kg oral): 81.00 ± 0.072%
% Protection against Edema ([1]; dose 5.0 mg/kg oral): 95.82 ± 0.062%
% Inhibition of Plasma PGE2 (plasma PGE2; dose 2.5 mg/kg oral): 63.14 ± 0.023%
% Inhibition of Plasma PGE2 (plasma PGE2; dose 5.0 mg/kg oral): 79.88 ± 0.031%
IC50 (MCF7): 0.35 nM
IC50 (HS578T): 5.67 µM
IC50 (MDAMB231): 3.67 µM
IC50 (MDAMB435): 57.5 µM
